Values joined by “and” are separate entries in the source; they are usually repeats but may differ in a detail not shown here. Equal entries are not always repeated. Where two headings read alike, the source gives them in different places.
Experiments:
[1] = target: T1, human MR (hMR) (Homo sapiens, UniProt P08235); assay: UG5LN-GAL4-hMR luciferase reporter cell assay (agonism and antagonism tests); format: cell-based; settings: for % min act: % of maximal luciferase activity induced by 10^−8 M aldosterone
T1 construct: hMR(LBD) (G671-K894) and zfMR(LBD) (L668-K970) have been amplified by PCR; expressed in transfected cells
T1 sequence (P08235 671-984 limits assumed): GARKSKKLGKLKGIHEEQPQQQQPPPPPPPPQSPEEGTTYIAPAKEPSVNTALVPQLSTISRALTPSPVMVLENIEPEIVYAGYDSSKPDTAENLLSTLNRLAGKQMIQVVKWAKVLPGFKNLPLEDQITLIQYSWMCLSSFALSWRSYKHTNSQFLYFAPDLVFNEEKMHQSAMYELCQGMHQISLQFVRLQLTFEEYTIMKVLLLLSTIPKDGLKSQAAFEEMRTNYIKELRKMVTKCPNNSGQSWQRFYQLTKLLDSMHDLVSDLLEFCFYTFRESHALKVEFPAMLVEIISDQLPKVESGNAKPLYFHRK
Procedure: (§1) The U2OS cells used to establish the MR reporter cell lines were obtained from and verified by ECACC (UK Health Security Agency, Porton Down, Salisbury, UK). The strategy used has been described previously to establish other NR-based cell lines.[42] First, the different pSG5-GAL4(DBD)-MRs (LBD) and (GAL4RE)5βGlob-Luc-SVNeo plasmids were tested by transient transfections in U2OS. Then, the UG5LN-GAL4-hMR and UG5LN-GAL4-zfMR clonal cells were generated in two steps. The first step was to establish clonal UG5LN cells by a stable transfection of U2OS cells, considered as steroid receptor negative, with the plasmid (GAL4RE)5βGlob-Luc-SVNeo. The second step consisted of the transfection of UG5LN cells with the plasmids pSG5-GAL4(DBD)-hMR(LBD)-puro, pSG5-GAL4(DBD)-hMRT870L(LBD)-puro or pSG5-GAL4(DBD)-zfMR(LBD)-puro, to generate UG5LN-GAL4-hMR, UG5LN-GAL4-hMRT870L and UG5LN-GAL4-zfMR clonal cells, respectively. Stable cell clones were selected in the presence of puromycin 0.5 μg/mL and G418 1 mg/mL. For each receptor, 5 to 10 clones were chosen for their ligand-induced luciferase expression. The clones were amplified and luciferase expression was checked at several passages. For each receptor, the clone with the best induction of luciferase activity was selected and used for the screening of the different chemicals. The stability and the inducibility of luciferase expression were checked during at least 20 passages (20 weeks).
(§2) To perform the reporter gene assay, cells were seeded in 96-wells white transparent culture plates (Greiner bio-one 655098CellStar; Dutscher, Brumath, France) at a density of 60,000 cells per well in 150 μL of culture medium and incubated at 37°C and 5% CO2 for 24 h. Then, after the attachment period, medium was removed and cells were exposed to increasing dilutions of the tested compounds in the experimental medium (DMSO; final concentration 0.1% v/v for chemicals and 0.3% v/v for water sample extracts) and incubated at 37°C and 5% CO2. After 24 h, medium was removed and replaced with 50 μL/well of experimental medium containing 0.3 mM luciferin. The luminescence signal was monitored in intact live cells for 2 s per well using a MicroBeta Wallac luminometer (PerkinElmer, Courtaboeuf, France). All experiments were performed in quadruplicate.
(§3) The quantification and statistical analysis are integral parts of the software used (GraphPad Prism 10, GraphPad Software Inc). The compounds were tested at different concentrations in at least three independent experiments. In each experiment, the compounds were tested in quadruplicate for each concentration, and the data were expressed as averages of the quadruplicates with their standard deviation to obtain a single value for that experimental series. Then, individual dose-response curves for each chemical were fitted from the averages of the three individual experiments using the sigmoidal dose-response function of the graphics and statistics software program GraphPad. Specifically, GraphPad employs nonlinear regression with the least squares method to fit the data to a sigmoidal function (based on the Hill equation). This method is used to determine the optimal parameter values, such as the Half Maximal Effective concentration (EC50) for agonist and the Half Maximal Inhibitory Concentration (IC50) for antagonist. […] Once the best-fit curve was obtained, the confidence intervals (e.g., 95% CI) for these parameters were estimated based on the uncertainty (variance) derived from the regression model, and the lower and upper 95% confidence limits of EC50s and IC50s were reported.

[2] = target: zebrafish MR (zfMR) (Danio rerio, UniProt A6YIH7); assay: UG5LN-GAL4-zfMR luciferase reporter cell assay (agonism and antagonism tests); format: cell-based; settings: for EC50: agonism test, chemical alone, mean of at least three experiments, read-out: EC50
Sequence of zebrafish MR (zfMR) (A6YIH7 entry or part of it): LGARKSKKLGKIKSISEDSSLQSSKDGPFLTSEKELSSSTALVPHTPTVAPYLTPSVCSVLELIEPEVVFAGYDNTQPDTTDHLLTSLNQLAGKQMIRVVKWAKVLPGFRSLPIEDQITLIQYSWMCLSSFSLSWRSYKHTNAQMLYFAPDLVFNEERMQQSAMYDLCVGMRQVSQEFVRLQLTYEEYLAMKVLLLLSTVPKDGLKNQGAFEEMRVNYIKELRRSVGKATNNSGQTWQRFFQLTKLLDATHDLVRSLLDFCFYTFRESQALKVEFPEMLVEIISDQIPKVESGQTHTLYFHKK
Procedure: as §1, §2, §3

[3] = antagonism test, in presence of aldosterone 10^−9 M, UG5LN-GAL4-hMR cells, read-out: IC50
[4] = antagonism test, in presence of aldosterone 0.5 10^−9 M, UG5LN-GAL4-zfMR cells, read-out: IC50
[5] = in words, UG5LN-GAL4-zfMR cells
[6] = environmental chemicals at 10^−5 M, antagonism test
[7] = environmental chemicals, antagonism test with aldosterone 10^−9 M, UG5LN-GAL4-hMR, read-out: IC50
[8] = environmental chemicals, antagonism test with aldosterone 0.5 10^−9 M, UG5LN-GAL4-zfMR, read-out: IC50
[9] = antagonism test with aldosterone 10^−9 M, at 10^−5, 10^−6 or 10^−7 M depending on chemical

Row | Compound | activity profile on zfMR (agonist / partial agonist / antagonist) [2, 5] | % min act [1, 6] | IC50 [1, 7] | IC50 [2, 8] | % min act [2] | further results
1 | CCC(=O)[C@@]1(C)CC[C@H]2[C@@H]3CCC4=CC(=O)CCC4=C3CC[C@@]21C [promegestone] | full antagonists | – | – | – | – | IC50 [1, 3]: 169 nM; activity profile on hMR (agonist / partial agonist / antagonist) ([1]; in words, UG5LN-GAL4-hMR cells): full antagonists; IC50 [2, 4]: 291 nM
2 | CC(=O)[C@H]1CC[C@H]2[C@@H]3CCC4=CC(=O)CC[C@]4(C)[C@H]3CC[C@]12C [progesterone] | partially activate | – | – | – | – | –
3 | CC(C)(c1ccc(O)cc1)c1ccc(O)c(Cl)c1 [2-chloro-bisphenol A] | – | 12 ± 8.7% | 1360 nM | 4300 nM | – | % min act ([2]; environmental chemicals at 10^−5 M, antagonism test, % of maximal luciferase activity induced by 10^−8 M aldosterone): 13.2 ± 1.3%
4 | CC#C[C@]1(O)CC[C@H]2[C@@H]3CCC4=CC(=O)CCC4=C3[C@@H](c3ccc(N(C)C)cc3)C[C@@]21C [mifepristone] | full antagonists | – | – | – | – | activity profile on hMR (agonist / partial agonist / antagonist) ([1]; in words, UG5LN-GAL4-hMR cells): full antagonists; IC50 [2, 4]: 1050 nM
5 | Oc1ccc(C(c2ccc(O)cc2)C(Cl)(Cl)Cl)cc1 [HPTE] | – | 12.3 ± 1.5% | 2060 nM | 11100 nM | 51 ± 6.8% | –
6 | ClC1=C(Cl)[C@]2(Cl)[C@H]3[C@H]([C@H](Cl)C(Cl)[C@@H]3Cl)[C@@]1(Cl)C2(Cl)Cl (stereo partly shown) [transnonachlore] | – | 10 ± 0.9% | 610 nM | – | 57.8 ± 9% | –
7 | C[C@]12CCC(=O)C[C@@H]1CC[C@@H]1[C@@H]2CC[C@]2(C)[C@@H](O)CC[C@@H]12 [dihydrotestosterone] | – | – | – | – | – | activity profile on hMR (agonist / partial agonist / antagonist) [1]: full antagonists; IC50 ([1]; IC50): 60 nM; activity profile on zfMR (agonist / partial agonist / antagonist) [2]: full antagonists; IC50 ([2]; IC50): 35 nM and 34.9 nM
8 | CC(=O)[C@H]1CC[C@H]2[C@@H]3CC=C4C[C@@H](O)CC[C@]4(C)[C@H]3CC[C@]12C [pregnenolone] | full antagonists | – | – | – | 4.1 ± 0.2% | % min act [1, 9]: 6.0 ± 1%; IC50 [1, 3]: 68 nM and 67.7 nM; activity profile on hMR (agonist / partial agonist / antagonist) ([1]; in words, UG5LN-GAL4-hMR cells): full antagonists; IC50 [2, 4]: 166 nM
9 | dihydroprogesterone | full antagonists | – | – | – | 5 ± 0.5% | % min act [1, 9]: 11 ± 2%; IC50 [1, 3]: 395 nM; activity profile on hMR (agonist / partial agonist / antagonist) ([1]; in words, UG5LN-GAL4-hMR cells): full antagonists; IC50 [2, 4]: 186 nM
10 | C[C@]12CCC(=O)C=C1C=C[C@@H]1[C@@H]2CC[C@@]2(C)[C@H]1CC[C@@]21CCC(=O)O1 [canrenone] | full antagonists | – | – | – | – | IC50 [1, 3]: 17 nM and 16.7 nM; activity profile on hMR (agonist / partial agonist / antagonist) ([1]; in words, UG5LN-GAL4-hMR cells): full antagonists; IC50 [2, 4]: 18 nM and 18.4 nM
11 | ClC1=C(Cl)C2(Cl)C3C4C=CC(C4)C3C1(Cl)C2(Cl)Cl (stereo not shown) [aldrin] | – | – | 390 nM | 2170 nM | – | –
12 | O=S1OCC2C(CO1)C1(Cl)C(Cl)=C(Cl)C2(Cl)C1(Cl)Cl (stereo not shown) [endosulfan] | – | – | 1010 nM | 8400 nM | – | –
13 | O=C1C2(Cl)C3(Cl)C4(Cl)C(Cl)(Cl)C5(Cl)C3(Cl)C1(Cl)C5(Cl)C24Cl (stereo not shown) [chlordecone] | – | 8.4 ± 1% | 1210 nM | 5590 nM | 28.6 ± 0.3% | –
14 | 17α-hydroxyprogesterone [17α-hydroxy progesterone] | full agonists | – | – | – | – | % max act [2]: 97.6 ± 1.2%; EC50 ([2]; UG5LN-GAL4-zfMR cells, listed as 17-α-hydroxy progesterone): 0.24 nM; EC50 ([2]; UG5LN-GAL4-zfMR cells, listed as 17α-hydroxyprogesterone): 0.2 nM
15 | C=CC(C)(O)C(=O)Nc1cc(Cl)cc(Cl)c1 (stereo not shown) [vinclozoline M2, Vinclozolin M2] | – | 28 ± 3.3% | 5960 nM | 7000 nM | 31 ± 0.5% | –
16 | CCCOCCN(C(=O)CCl)c1c(CC)cccc1CC [pretilachlore] | – | 21.5 ± 1.7% | 3510 nM | 4710 nM | 21 ± 0.7% | –
17 | CC(C)(C)CC(C)(C)c1ccc(O)cc1 [4-tert-octylphenol] | – | – | 2120 nM | 15800 nM | – | –
18 | ClC(Cl)=C(c1ccc(Cl)cc1)c1ccccc1Cl [2,4′-DDE, 2,4′DDE] | – | 8.3 ± 1.2% | 470 nM | 6900 nM | 34.8 ± 6.6% | –
19 | Nonylphenol mixture | – | 12 ± 2.5% | 1560 nM | 9200 nM | 40.7 ± 4.8% | –
20 | C[C@]12CCC(=O)C=C1CC[C@@H]1[C@@H]2CC[C@@]2(C)[C@H]1CC[C@]2(O)C(=O)CO [11-deoxycortisol] | partially activate | – | – | – | – | IC50 [1, 3]: 4.4 nM and 4.41 nM; activity profile on hMR (agonist / partial agonist / antagonist) ([1]; in words, UG5LN-GAL4-hMR cells): complete antagonists; EC50 ([2]; UG5LN-GAL4-zfMR cells): 0.73 nM; REP (relative potency) ([2]; ratio of EC50 values aldosterone/chemical, aldosterone set at 1): 0.41
21 | Bisphenol C | – | 51 ± 6% | 13200 nM | 11800 nM | – | –
22 | CC(C)(c1ccc(O)cc1)c1ccc(O)cc1 [bisphenol A, Bisphenol A] | – | – | 2280 nM | 5150 nM | – | –

Reference: article PMC12636382, “Human and zebrafish mineralocorticoid receptors reporter cell assays to assess the activity of chemicals” (iScience, 2025)
